# Values quoted from earlier work in patent publication US20110064750A1, “METHOD AND KIT FOR TREATING NICOTINE ADDICTION” (Nabi Biopharmaceuticals, priority 2009, published 2011).
# Like-named read-outs stand apart in the source and are kept apart here.
# Tests used:
# [1] = biological target: α4β2 nicotinic acetylcholine receptors (Homo sapiens, UniProt P17787+P43681); settings: blocking nicotine activation of nAChRs
# smoking cessation = settings: for Time at which efficacy generally is apparent: previous studies
# [2] = biological target: α3β2 nicotinic acetylcholine receptors (Homo sapiens, UniProt P17787+P32297); settings: blocking nicotine activation of nAChRs
# Sequence of α3β2 nicotinic acetylcholine receptors (P32297 32-505): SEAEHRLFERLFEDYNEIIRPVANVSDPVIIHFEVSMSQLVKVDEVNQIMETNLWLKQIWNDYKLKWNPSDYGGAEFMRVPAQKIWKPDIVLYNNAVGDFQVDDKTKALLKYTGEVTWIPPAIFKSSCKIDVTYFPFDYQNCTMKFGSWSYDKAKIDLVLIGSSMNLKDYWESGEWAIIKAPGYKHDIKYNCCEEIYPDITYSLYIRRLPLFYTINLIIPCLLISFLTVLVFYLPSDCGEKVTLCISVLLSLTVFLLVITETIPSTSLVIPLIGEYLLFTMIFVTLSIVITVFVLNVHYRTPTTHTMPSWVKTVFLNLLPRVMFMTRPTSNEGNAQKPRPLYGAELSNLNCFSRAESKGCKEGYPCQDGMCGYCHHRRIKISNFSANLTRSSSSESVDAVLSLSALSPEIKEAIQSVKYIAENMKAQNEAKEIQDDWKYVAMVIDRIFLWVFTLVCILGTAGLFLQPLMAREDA
# Sequence of α3β2 nicotinic acetylcholine receptors (P17787 26-502): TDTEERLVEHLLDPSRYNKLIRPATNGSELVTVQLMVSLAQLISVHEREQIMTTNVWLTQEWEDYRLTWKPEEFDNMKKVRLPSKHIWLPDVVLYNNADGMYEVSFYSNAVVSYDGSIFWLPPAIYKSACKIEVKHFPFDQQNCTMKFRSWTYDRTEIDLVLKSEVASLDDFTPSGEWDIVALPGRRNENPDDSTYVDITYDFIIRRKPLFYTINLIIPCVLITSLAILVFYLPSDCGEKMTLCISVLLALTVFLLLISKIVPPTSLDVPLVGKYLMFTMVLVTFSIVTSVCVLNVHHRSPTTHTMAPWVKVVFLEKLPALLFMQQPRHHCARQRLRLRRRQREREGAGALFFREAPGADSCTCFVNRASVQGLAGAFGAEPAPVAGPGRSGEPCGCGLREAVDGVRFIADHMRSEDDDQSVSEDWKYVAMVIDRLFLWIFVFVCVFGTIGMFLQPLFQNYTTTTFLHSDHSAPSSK
# smoking abstinence [3] = system: smoking abstinence
# [4] = system: neuronal uptake of norepinephrine and dopamine
# [5] = salt form, powder
# smoking abstinence [6] = settings: 12 week course, varenicline 1.0 mg bid, bupropion 150 mg SR bid, carbon-monoxide confirmed
# α4β2 nicotinic receptors = α4β2 nicotinic receptors (Homo sapiens, UniProt P17787+P43681); settings: stimulating receptor-mediated activity at a significantly lower level than nicotine
# Sequence of α4β2 nicotinic receptors (P43681 29-627 limits assumed): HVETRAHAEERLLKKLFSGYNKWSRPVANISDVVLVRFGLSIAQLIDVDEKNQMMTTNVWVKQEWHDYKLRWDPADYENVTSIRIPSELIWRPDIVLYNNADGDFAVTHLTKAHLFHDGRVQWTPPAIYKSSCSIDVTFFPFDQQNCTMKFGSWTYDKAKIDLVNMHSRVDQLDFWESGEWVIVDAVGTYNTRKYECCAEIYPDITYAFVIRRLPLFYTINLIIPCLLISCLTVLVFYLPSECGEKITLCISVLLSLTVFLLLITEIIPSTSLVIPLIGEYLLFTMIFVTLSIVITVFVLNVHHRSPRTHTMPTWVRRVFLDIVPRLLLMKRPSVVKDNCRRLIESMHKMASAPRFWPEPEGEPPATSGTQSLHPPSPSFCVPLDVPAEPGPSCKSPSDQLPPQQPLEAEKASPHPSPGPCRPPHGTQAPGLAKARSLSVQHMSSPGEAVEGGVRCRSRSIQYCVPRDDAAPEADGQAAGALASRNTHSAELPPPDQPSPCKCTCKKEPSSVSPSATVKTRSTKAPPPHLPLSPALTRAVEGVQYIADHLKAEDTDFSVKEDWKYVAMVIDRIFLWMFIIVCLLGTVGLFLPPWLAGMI
# Sequence of α4β2 nicotinic receptors (P17787 26-502): as the sequence (P17787 26-502) above
# Sequence of α4β2 nicotinic acetylcholine receptors (P43681 29-627 limits assumed): as the sequence (P43681 29-627 limits assumed) above
# Sequence of α4β2 nicotinic acetylcholine receptors (P17787 26-502): as the sequence (P17787 26-502) above
compound,measurement,setting,value
"CC(NC(C)(C)C)C(=O)c1cccc(Cl)c1.Cl (stereo not shown) [Bupropion, Bupropion hydrochloride]",Times more effective in blocking α4β2 than α7,[1],12 times
same,Time at which efficacy may diminish,smoking cessation; even though administration is ongoing,after about six or seven weeks
same,Chances of quitting smoking compared with placebo,smoking cessation; in vivo,double
same,Nicotine craving and nicotine withdrawal symptoms,smoking cessation; in vivo,lower
same,Time at which efficacy generally is apparent,smoking cessation,one week after the first dose
same,Times more effective in blocking α3β2 than α7,[2],50 times
same,Inhibition of monoamine oxidase,monoamine oxidase,does not inhibit
same,Abstinence from week 4 through Week 7 (4-week quit),smoking abstinence [3]; 100 mg/day,22%
same,Abstinence from week 4 through Week 12,smoking abstinence [3]; 100 mg/day,20%
same,Abstinence from week 4 through Week 26,smoking abstinence [3]; 100 mg/day,16%
same,Abstinence from week 4 through Week 7 (4-week quit),smoking abstinence [3]; 150 mg/day,27%
same,Abstinence from week 4 through Week 12,smoking abstinence [3]; 150 mg/day,20%
same,Abstinence from week 4 through Week 26,smoking abstinence [3]; 150 mg/day,18%
same,Abstinence from week 4 through Week 7 (4-week quit),smoking abstinence [3]; 300 mg/day,36%
same,Abstinence from week 4 through Week 12,smoking abstinence [3]; 300 mg/day,25%
same,Abstinence from week 4 through Week 26,smoking abstinence [3]; 300 mg/day,19%
same,Inhibition of the neuronal uptake of norepinephrine and dopamine,[4],relatively weak inhibitor
same,Solubility in water,[5],highly soluble in water
same,Continuous Abstinence Rate (Wks 9-12),smoking abstinence [6]; Study A,16%
same,Continuous Abstinence Rate (Wks 9-12),smoking abstinence [6]; Study B,14%
"c1cnc2cc3c(cc2n1)[C@@H]1CNC[C@H]3C1 [Varenicline, 7,8,9,10-tetrahydro-6,10-methano-6H-pyrazino[2,3-h][3]benzazpine, (2R,3R)-2,3-dihydroxybutanedioate(1:1)]",Time at which efficacy generally is apparent,smoking cessation,one week after the first dose
same,Solubility in water,[5],highly soluble in water
same,Continuous Abstinence Rate (Wks 9-12),smoking abstinence [6]; Study A,21%
same,Continuous Abstinence Rate (Wks 9-12),smoking abstinence [6]; Study B,22%
same,Agonist activity at α4β2 nicotinic receptors,α4β2 nicotinic receptors,low level agonist
